Data reported in publication PMC8708382, “Heterocyclic Cathinones as Inhibitors of Kynurenine Aminotransferase II—Design, Synthesis, and Evaluation” (Pharmaceuticals, 2021).
Structures can show the parent of a compound that is named as a salt. Where two headings read alike, the source gives them in different places.

Columns and labels:
hKAT-II = molecular target: T1, hKAT-II (Homo sapiens, UniProt Q8N5Z0); assay: Coupled fluorescence in vitro inhibition assay of hKAT-II; type: biochemical; details: 20 nM hKAT-II; for IC50: 30 min pre-incubation; for Inhibitory Activity [%I ± SEM] c = 1 µM: 30 min pre-incubation with enzyme, mean ± SEM
T1 construct: hexahistidine tag (N); made in house; host or cells: E. coli BL21(DE3)-RIL
T1 sequence (Q8N5Z0 30-425): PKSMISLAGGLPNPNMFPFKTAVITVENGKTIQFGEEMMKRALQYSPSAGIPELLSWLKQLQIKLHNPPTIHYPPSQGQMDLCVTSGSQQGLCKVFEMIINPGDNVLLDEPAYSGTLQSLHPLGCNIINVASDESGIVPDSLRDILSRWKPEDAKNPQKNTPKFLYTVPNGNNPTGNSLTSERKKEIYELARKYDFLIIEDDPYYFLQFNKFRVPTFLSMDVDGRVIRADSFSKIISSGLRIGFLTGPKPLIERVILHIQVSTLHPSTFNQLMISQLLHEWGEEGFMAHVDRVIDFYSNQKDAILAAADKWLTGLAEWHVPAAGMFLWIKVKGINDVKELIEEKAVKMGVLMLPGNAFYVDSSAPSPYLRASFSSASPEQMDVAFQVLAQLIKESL
Experimental: The inhibitory activity of amino ketones 11 and 12 was evaluated using a fluorimetric in vitro assay. The activity was determined as the percentage of inhibition (%I) at a concentration of 1 µmol/L and also as IC50 values (Table 1). The observed inhibitory activity confirmed the validity of the computational model and was suitable to conduct a synthesis-directed SAR study around the predicted heterocyclic α-amino ketone structure.
The nucleotide sequence encoding hKAT-II gene was constructed by Invitrogen, Thermo Fisher Scientific. The hKAT-II gene, optimized for heterologous expression in E. coli, was cloned into a pET15b vector using NdeI-XhoI. The hKAT-II protein, carrying an N-terminal hexahistidine tag, was produced in E.coli BL21(DE3)-RIL cells for 4 h at 37 °C. The bacterial cells were then harvested and disintegrated using One-Shot. […] (25.000× g, 30 min) centrifugation cleared cell lysate containing hKAT-II was loaded on the top of a HisTrap Fast Flow column (Cytiva) equilibrated in loading buffer (40 mM Tris, pH 8; 1000 mM NaCl, 40 µM PLP, 5 mM MgCl2, 20 mM imidazole). Following elution of the bound proteins by the loading buffer containing 600 mM imidazole, purified hKAT-II was dialyzed into a storage buffer (20 mM Hepes pH 7.5; 50 mM NaCl, 70 µM PLP, 10% glycerol), concentrated to 1.0–1.5 mg/mL, aliquoted, and stored at −80 °C.
hKAT-II activity was measured using a fluorescence assay utilizing L-α-aminoadipic acid (AAD) and α-ketoglutarate as the substrates as previously described. The assay medium (100 µL) consisted of 0.75 µM of hKAT-II, 0.3 mM of AAD, 50 µM α-ketoglutarate, 3 mM NAD^+, 88 µg/mL of glutamic dehydrogenase, and 5 µM pyridoxal phosphate (PLP) in a 0.1 M phosphate buffer pH 7.5. The activity of the enzyme was assessed on a Spark multiple mode reader (Tecan Group Ltd., Männedorf, Switzerland) with an excitation wavelength of 340 nm and emission wavelength of 390 nm at 37 °C. The plate was shaken for 20 s before reading. The kinetic interval was set at 30 s between each reading, and data were collected for 30 min. The activity of the enzyme was assayed in pentaplicate in each measurement (n = 3). Kinetic data were then collected over a period of 30 min, and the linear part of the initial velocity was used to calculate the enzyme activity expressed as the slope of the linearized curve via the linear regression function (Excel, Microsoft, USA).
The inhibitory activity of the tested compounds was determined via 30 min pre-incubation with the enzyme at various concentrations of the inhibitor at room temperature in a 0.1 M phosphate buffer pH 7.5 with 5 µM PLP. The enzyme reaction was initiated by the addition of a substrate and cofactors. The final mixture contained 20 nM of hKAT-II, 0.3 mM of AAD, 50 µM α-ketoglutarate, 3 mM NAD^+, and 88 µg/mL of glutamic dehydrogenase. Kinetic data were collected over a period of 30 min, and the slope of the linearized curve was calculated as above. The inhibitory activity in %I at a given concentration was calculated for novel compounds using the following equation:(1) Inhibition [%I]=(V0− Vi/V0)×100, where V0 and Vi are the activity of the enzyme in the absence and presence of the inhibitor, respectively. All the data were obtained in pentaplicate for each measurement (n = 3). Alternatively, the IC50 values for selected novel compounds were assessed. GraphPad Prism 8 software (San Diego, USA) was used for the IC50 value calculation using non-linear regression (four parameters). […]

[1] = non-linear regression (four parameters), read-out: IC50 ± SEM

Row | SMILES | melting point | IC50 (hKAT-II; assay validation, read-out: IC50 of the reference inhibitor) [µM] | IC50 (hKAT-II; [1]) [µM] | Inhibitory Activity [%I ± SEM] c = 1 µM (hKAT-II) [%I]
1 | C[C@H](N)C(=O)c1cn(-c2cccnc2)nn1 (as salt: hydrochloride) [Compound 26l] | 140 to 143 °C (dec.) | – | – | –
2 | N[C@H]1Cc2ccccc2N(O)C1=O [Compound 3, PF-04859989, reference compound] | – | 0.028 ± 0.005 | – | –
3 | C[C@H](N)C(=O)c1ncc(-c2ccccc2)s1 [Compound 11, 2-alaninoyl-5-phenylthiazole] | > 168 °C (dec.) | – | 1.62 ± 1.43 | 41.41 ± 4.15
4 | C[C@H](N)C(=O)c1cn(-c2ccccc2)nn1 [Compound 12, 4-alaninoyl-1-phenyl-1H-1,2,3-triazole] | > 178 °C (dec.) | – | 3.21 ± 0.26 | 43.19 ± 2.30
5 | CC(C)[C@H](N)C(=O)c1cn(-c2ccccc2)nn1.Cl [Compound 21a] | > 182 °C (dec.) | – | – | 10.32 ± 4.81
6 | N[C@@H](Cc1ccccc1)C(=O)c1cn(-c2ccccc2)nn1 [Compound 21b] | > 174 °C (dec.) | – | – | 14.52 ± 3.71
7 | Cl.N[C@@H](CCc1ccccc1)C(=O)c1cn(-c2ccccc2)nn1 [Compound 21c] | > 175 °C (dec.) | – | – | 16.50 ± 3.71
8 | CCCC[C@H](N)C(=O)c1cn(-c2ccccc2)nn1.Cl [Compound 21d] | > 173 °C (dec.) | – | – | 13.46 ± 5.46
9 | CC[C@H](N)C(=O)c1cn(-c2ccccc2)nn1.Cl [Compound 21e] | – | – | – | 21.82 ± 4.80
10 | N[C@H](C(=O)c1cn(-c2ccccc2)nn1)C1CC1 [Compound 21f] | > 183 °C (dec.) | – | – | 7.44 ± 3.75
11 | CC(C)[C@H](N)C(=O)c1ncc(-c2ccccc2)s1 [Compound 25a] | > 170 °C (dec.) | – | – | 31.24 ± 3.64
12 | N[C@@H](Cc1ccccc1)C(=O)c1ncc(-c2ccccc2)s1 [Compound 25b] | > 175 °C (dec.) | – | – | 7.22 ± 2.70
13 | N[C@@H](CCc1ccccc1)C(=O)c1ncc(-c2ccccc2)s1 [Compound 25c] | > 135 °C (dec.) | – | – | 31.32 ± 0.88
14 | CCCC[C@H](N)C(=O)c1ncc(-c2ccccc2)s1 [Compound 25d] | 124 to 127 °C | – | – | 37.22 ± 2.53
15 | CC[C@H](N)C(=O)c1ncc(-c2ccccc2)s1 [Compound 25e] | > 180 °C (dec.) | – | – | 44.18 ± 3.42
16 | N[C@H](C(=O)c1ncc(-c2ccccc2)s1)C1CC1 [Compound 25f] | > 165 °C (dec.) | – | – | 6.12 ± 2.66
17 | COc1ccc(-n2cc(C(=O)[C@H](C)N)nn2)cc1 [Compound 26a] | > 180 °C (dec.) | – | – | 38.50 ± 2.21
18 | COc1cccc(-n2cc(C(=O)[C@H](C)N)nn2)c1 [Compound 26b] | > 171 °C (dec.) | – | – | 18.20 ± 2.27
19 | COc1ccccc1-n1cc(C(=O)[C@H](C)N)nn1 [Compound 26c] | > 168 °C (dec.) | – | – | 23.41 ± 3.97
20 | C[C@H](N)C(=O)c1cn(-c2ccc(C(C)(C)C)cc2)nn1 [Compound 26d] | > 181 °C (dec.) | – | – | 0.98 ± 1.98
21 | Cc1ccc(-n2cc(C(=O)[C@H](C)N)nn2)cc1 [Compound 26e] | > 184 °C (dec.) | – | – | 18.56 ± 2.33
22 | Cc1ccc(-n2cc(C(=O)[C@H](C)N)nn2)cc1C [Compound 26f] | > 170 °C (dec.) | – | – | 9.10 ± 2.07

Row | SMILES | melting point | IC50 (hKAT-II; assay validation, read-out: IC50 of the reference inhibitor) [µM] | IC50 (hKAT-II; [1]) [µM] | Inhibitory Activity [%I ± SEM] c = 1 µM (hKAT-II) [%I]
23 | Cc1ccc(-n2cc(C(=O)[C@H](C)N)nn2)c(C)c1 [Compound 26g] | > 175 °C (dec.) | – | – | 41.60 ± 6.39
24 | Cc1cccc(C)c1-n1cc(C(=O)[C@H](C)N)nn1 [Compound 26h] | > 176 °C (dec.) | – | – | 25.38 ± 2.22
25 | C[C@H](N)C(=O)c1cn(-c2cccc3ccccc23)nn1 [Compound 26i] | > 172 °C (dec.) | – | – | 4.32 ± 1.32
26 | C[C@H](N)C(=O)c1cn(-c2ccc3ccccc3c2)nn1 [Compound 26j] | > 182 °C (dec.) | – | – | 27.81 ± 3.33
27 | C[C@H](N)C(=O)c1cn(-c2ccccn2)nn1.Cl [Compound 26k] | > 198 °C (dec.) | – | – | 20.73 ± 1.83
28 | C[C@H](N)C(=O)c1cn(-c2cccnc2)nn1 [Compound 26l] | – | – | – | 23.63 ± 2.30
29 | C[C@H](N)C(=O)c1cn(-c2ccncc2)nn1.Cl.Cl [Compound 26m] | > 183 °C (dec.) | – | – | 33.48 ± 4.88
30 | C[C@H](N)C(=O)c1cn(-c2ccc(F)cc2)nn1.Cl [Compound 26n] | > 183 °C (dec.) | – | – | 41.77 ± 3.01
31 | C[C@H](N)C(=O)c1cn(-c2ccc(C(F)(F)F)cc2)nn1 [Compound 26o] | – | – | – | 9.70 ± 1.67
32 | C[C@H](N)C(=O)c1cn(-c2cccc([N+](=O)[O-])c2)nn1.Cl [Compound 26p] | > 183 °C (dec.) | – | – | 41.43 ± 2.67
33 | C[C@H](N)C(=O)c1cn(-c2ccc([N+](=O)[O-])cc2)nn1.Cl [Compound 26q] | > 191 °C (dec.) | – | – | 41.73 ± 2.66
34 | C[C@H](N)C(=O)c1cn(-c2ccc(Cl)cc2)nn1.Cl [Compound 26r] | > 177 °C (dec.) | – | – | 23.86 ± 2.95
35 | C[C@H](N)C(=O)c1cn(-c2cccc(Cl)c2)nn1 [Compound 26s] | > 171 °C (dec.) | – | – | 20.63 ± 3.78
36 | C[C@H](N)C(=O)c1cn(-c2ccccc2Cl)nn1.Cl [Compound 26t] | 138 to 169 °C (dec.) | – | – | 35.52 ± 3.63
37 | C[C@H](N)C(=O)c1cn(-c2ccc(Cl)c(Cl)c2)nn1 [Compound 26u] | > 163 °C (dec.) | – | – | 19.33 ± 1.06
38 | C[C@H](N)C(=O)c1cn(-c2ccc(F)c(Cl)c2)nn1 [Compound 26v] | – | – | – | 23.62 ± 4.30
39 | C[C@H](N)C(=O)c1cn(Cc2ccccc2)nn1.Cl [Compound 28a] | > 182 °C (dec.) | – | – | 14.54 ± 3.19
40 | C[C@H](N)C(=O)c1cn(CCc2ccccc2)nn1.Cl [Compound 28b] | > 172 °C (dec.) | – | – | 11.84 ± 5.76
41 | C[C@H](N)C(=O)c1cn(-c2ccc(F)cc2Cl)nn1 [Compound 32a] | > 158 °C (dec.) | – | – | 25.30 ± 1.10
42 | CC[C@H](N)C(=O)c1cn(-c2ccc(F)cc2Cl)nn1 [Compound 32b] | > 196 °C (dec.) | – | – | 21.25 ± 0.67
43 | C[C@H](N)C(=O)c1ncc(-c2ccc(F)cc2)s1 [Compound 49a, 2-alaninoyl-5-(4-fluorophenyl)thiazole] | – | – | 0.097 ± 0.014 | 61.54 ± 7.16
